Test results taken from ChEMBL document CHEMBL4414645, “Development of Robust 17(R),18(S)-Epoxyeicosatetraenoic Acid (17,18-EEQ) Analogues as Potential Clinical Antiarrhythmic Agents” (J Med Chem, 2019).
Calls of active or inactive are those of the source. The calls are words filed in the database; no cut-off is given here.

Assays:
[1] = biological target: T1, Bifunctional epoxide hydrolase 2 (Homo sapiens) (UniProt P34913); conditions: Sf21, at 1 µM
T1 sequence (whole entry): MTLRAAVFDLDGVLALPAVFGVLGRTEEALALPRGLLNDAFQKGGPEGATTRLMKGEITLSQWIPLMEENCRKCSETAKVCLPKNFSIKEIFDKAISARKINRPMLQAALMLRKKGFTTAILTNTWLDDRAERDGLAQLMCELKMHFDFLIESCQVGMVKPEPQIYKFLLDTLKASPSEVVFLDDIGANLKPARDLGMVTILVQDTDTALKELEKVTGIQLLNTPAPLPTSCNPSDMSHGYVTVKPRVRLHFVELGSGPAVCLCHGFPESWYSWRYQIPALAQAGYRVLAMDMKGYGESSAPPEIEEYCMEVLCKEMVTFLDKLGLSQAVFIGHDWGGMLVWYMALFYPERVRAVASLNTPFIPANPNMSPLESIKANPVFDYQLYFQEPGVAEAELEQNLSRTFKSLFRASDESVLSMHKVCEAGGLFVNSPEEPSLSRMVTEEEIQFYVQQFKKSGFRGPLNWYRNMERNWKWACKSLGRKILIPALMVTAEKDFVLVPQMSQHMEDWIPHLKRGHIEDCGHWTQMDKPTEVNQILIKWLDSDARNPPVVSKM
Description: Inhibition of N-terminal His-tagged recombinant human soluble epoxide hydrolase (2 to 555 residues) expressed in Sf21 insect cells at 1 uM using as 14,15-EET as substrate after 10 mins by reversed-phase HPLC assay relative to control

[2] = Negative chronotropic activity in Wistar rat neonatal cardiomyocytes assessed as change in basal beating rate after 7 mins by inverted microscopic method; type: functional
[3] = biological target: T1, Bifunctional epoxide hydrolase 2 (Homo sapiens); experiment: Inhibition of N-terminal His-tagged recombinant human soluble epoxide hydrolase (2 to 555 residues) expressed in Sf21 insect cells at 10 uM using as 14,15-EET as substrate after 10 mins by reversed-phase HPLC assay relative to control
[4] = Stability in human plasma assessed as compound remaining at 10 uM measured up to 60 mins by LC-ESI-MS/MS analysis; type: ADME, cell-free; conditions: read-out: Stability
Cytochrome P450 2J2 = biological target: T2, Cytochrome P450 2J2 (Homo sapiens, UniProt P51589); experiment: Inhibition of recombinant human CYP2J2 expressed in baculovirus infected insect cells co-expressing NADPH-CYP reductase and cytochrome b5 assessed as reduction in CYP2J2-mediated EPA epoxidation by measuring sum of EEQ and DiHETEs level at 1 to 50 uM using EPA as substrate preincubated for 5 mins followed by NADPH addition and measured after 15 mins by LCMS/MS analysis; type: ADME; conditions: recombinant enzyme, 0.25 h
T2 sequence (P51589 whole entry): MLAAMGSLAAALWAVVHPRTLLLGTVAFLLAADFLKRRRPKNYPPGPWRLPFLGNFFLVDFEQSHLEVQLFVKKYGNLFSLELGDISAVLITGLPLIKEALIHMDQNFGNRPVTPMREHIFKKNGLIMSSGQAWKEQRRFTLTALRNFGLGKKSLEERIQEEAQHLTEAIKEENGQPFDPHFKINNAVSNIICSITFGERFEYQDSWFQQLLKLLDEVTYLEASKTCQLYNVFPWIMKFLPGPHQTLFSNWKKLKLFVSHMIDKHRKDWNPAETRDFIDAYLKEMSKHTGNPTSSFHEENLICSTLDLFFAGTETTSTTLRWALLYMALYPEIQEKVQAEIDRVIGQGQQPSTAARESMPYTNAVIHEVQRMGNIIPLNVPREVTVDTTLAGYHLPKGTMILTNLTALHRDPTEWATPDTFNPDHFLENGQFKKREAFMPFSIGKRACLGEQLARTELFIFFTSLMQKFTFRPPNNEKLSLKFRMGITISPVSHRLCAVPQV

[5] = Aqueous solubility of the compound in pH 7.4 potassium phosphate buffer at 2 mg after 1 to 24 hrs by RP-HPLC method; type: physicochemical
[6] = Apparent permeability across apical to basolateral side in human Caco2 cells at 10 uM after 15 to 90 mins by LC-ESI-MS/MS analysis; type: ADME, cell-based; conditions: Caco-2
[7] = Apparent permeability across basolateral to apical side in human Caco2 cells at 10 uM after 15 to 90 mins by LC-ESI-MS/MS analysis; type: ADME, cell-based; conditions: Caco-2
[8] = Half life in human hepatocytes at 1 uM measured up to 180 mins by LC-ESI-MS/MS analysis; type: ADME, cell-based, Hepatocyte
[9] = Intrinsic clearance in human hepatocytes assessed per million cells at 1 uM measured up to 180 mins by LC-ESI-MS/MS analysis; type: ADME, cell-based, Hepatocyte; conditions: read-out: CLH
[10] = Negative chronotropic activity in Wistar rat neonatal cardiomyocytes assessed as changes to basal beating rate after 7 mins by inverted microscopic method; type: functional
[11] = Negative chronotropic activity in Wistar rat neonatal cardiomyocytes assessed as decrease in basal beating rate after 7 mins by inverted microscopic method; type: functional, cell-based
Rattus norvegicus [12] = experiment: Antiarrhythmic activity in Wistar rat model of coronary artery ligation-induced myocardial infarction assessed as reduction in disease severity score at 100 ug, iv administered via bolus pretreated for 10 mins followed by left anterior descending artery occlusion measured for 45 mins; type: functional, organism-based
Rattus norvegicus [13] = experiment: Antiarrhythmic activity in Wistar rat model of coronary artery ligation-induced myocardial infarction assessed as reduction in total time on development of ventricular tachycardia at 100 ug, iv administered via bolus pretreated for 10 mins followed by coronary artery ligation measured for 45 mins; type: functional, organism-based
[14] = biological target: T3, Epoxide hydrolase 1/Bifunctional epoxide hydrolase 2 (Homo sapiens, UniProt P07099+P34913); experiment: Drug metabolism in human liver microsomes assessed as microsomal/soluble epoxide hydrolase mediated formation of [+O + H2O] metabolites at 1 uM after 60 mins in absence of NADPH by LC-MS analysis; type: ADME; conditions: 1 h
T3 sequence (P07099 whole entry): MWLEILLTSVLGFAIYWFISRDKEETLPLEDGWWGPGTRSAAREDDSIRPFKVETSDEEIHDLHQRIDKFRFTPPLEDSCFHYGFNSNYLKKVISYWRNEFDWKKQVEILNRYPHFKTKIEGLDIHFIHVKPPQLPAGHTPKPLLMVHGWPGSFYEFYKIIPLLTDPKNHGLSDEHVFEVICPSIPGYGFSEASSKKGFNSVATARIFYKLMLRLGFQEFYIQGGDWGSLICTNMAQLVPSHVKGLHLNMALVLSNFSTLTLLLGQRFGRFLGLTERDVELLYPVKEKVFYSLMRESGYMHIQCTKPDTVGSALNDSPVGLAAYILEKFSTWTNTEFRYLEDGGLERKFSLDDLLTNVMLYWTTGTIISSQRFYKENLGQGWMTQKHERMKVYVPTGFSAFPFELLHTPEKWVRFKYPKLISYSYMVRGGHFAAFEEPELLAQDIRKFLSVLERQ
T3 sequence (P34913 whole entry): T1 sequence (whole entry)

[15] = biological target: T3, Epoxide hydrolase 1/Bifunctional epoxide hydrolase 2; experiment: Drug metabolism in human liver microsomes assessed as microsomal/soluble epoxide hydrolase mediated formation of [+O + H2O] metabolites at 1 uM after 60 mins in presence of NADPH by LC-MS analysis; type: ADME; conditions: 1 h
Cytochrome P450 [16] = experiment: Drug metabolism in human liver microsomes assessed as CYP450-mediated formation of [+O] metabolites at 1 uM after 60 mins in presence of NADPH by LC-MS analysis; type: ADME; conditions: 1 h
Cytochrome P450 [17] = experiment: Drug metabolism in human liver microsomes assessed as CYP450-mediated formation of [+O] metabolites at 1 uM after 60 mins in absence of NADPH by LC-MS analysis; type: ADME; conditions: 1 h

| Structure (SMILES) | inhibition [1] | Activity [2] | inhibition [3] | further results |
| --- | --- | --- | --- | --- |
| CNC(=O)C(=O)NCCCC/C=C\CCCCCCCCCc1noc(=O)[nH]1 | -5% | -11 bpm | -9.2% |  |
| CCNC(=O)NCCCC/C=C\CCCCCCCOCC(=O)O | 3.6% | -38 bpm | 10.4% |  |
| CNC(=O)C(=O)NCCCc1ccccc1CCCCCCP(=O)([O-])[O-].[Na+].[Na+] | -1% | -24.5 bpm | -2.2% |  |
| CNC(=O)C(=O)NCCCC/C=C\CCCCCCCCCOc1cccc2sc(NC(C)=O)nc12 | 17% | -21.1 bpm | 61.8% |  |
| CNC(=O)C(=O)NCCCC/C=C\CCCCCCCCCC(=O)N(C)CC(=O)[O-].[Na+] | -0.6% | -15.6 bpm | 17.8% |  |
| CNC(=O)C(=O)NCCCC/C=C\CCCCCCCCCC(=O)N[C@@H](C)C(=O)[O-].[Na+] | 1.9% | -1.1 bpm | 18.7% |  |
| CC(C)[N+](C)(CCOC(=O)C1c2ccccc2Oc2ccccc21)C(C)C [PROPANTHELINE BROMIDE] |  |  |  | remaining at 1 h, 10 µM [4]: 2.6% |
| CNC(=O)C(=O)NCCCC/C=C\CCCCCCCCCP(=O)(OCOC(=O)C(C)(C)C)OCOC(=O)C(C)(C)C | 5.1% | -23.5 bpm | 38.4% |  |
| CCCCc1oc2ccccc2c1C(=O)c1cc(I)c(OCCN(CC)CC)c(I)c1 [AMIODARONE] |  |  |  | inhibition (INH) (Cytochrome P450 2J2): Active |
| CNC(=O)C(=O)NCCCC/C=C\CCCCCCCCCC(=O)NS(=O)(=O)c1ccccc1 | -3.2% | -23.1 bpm | 1.1% |  |
| CCNC(=O)NCCCC/C=C\CCCCCCCCCC(=O)OCCOCCOCCO | 26.5% | -19.8 bpm | 76.6% | solubility [5]: Soluble |
| CNC(=O)C(=O)NCCCC/C=C\CCCCCCCCCP(=O)(OC)OC | 5% | -18 bpm | 6.4% |  |
| CC[C@H]1OC(=O)[C@H](C)[C@@H](O[C@H]2C[C@@](C)(OC)[C@@H](O)[C@H](C)O2)[C@H](C)[C@@H](O[C@@H]2O[C@H](C)C[C@H](N(C)C)[C@H]2O)[C@](C)(O)C[C@@H](C)C(=O)[C@H](C)[C@@H](O)[C@]1(C)O [ERYTHROMYCIN] |  |  |  | Papp A→B at 10 µM [6]: 0.35 ×10⁻⁶ cm/s; Papp B→A at 10 µM [7]: 10.4 ×10⁻⁶ cm/s |
| CCNC(=O)NCCCC/C=C\CCCCCCCCCC(=O)O | 4.7% |  | 23.4% |  |
| C[C@]12CC[C@H]3[C@@H](CCC4=CC(=O)CC[C@@]43C)[C@@H]1CC[C@@H]2O [TESTOSTERONE] |  |  |  | Papp A→B at 10 µM [6]: 32.5 ×10⁻⁶ cm/s; Papp B→A at 10 µM [7]: 58.9 ×10⁻⁶ cm/s |
| CNC(=O)C(=O)NCCCCc1ccccc1CCCCCCCCCP(=O)([O-])[O-].[Na+].[Na+] | 1.3% | -21.8 bpm | 1.8% |  |
| CC(C)(C)c1ccc(C(O)CCCN2CCC(C(O)(c3ccccc3)c3ccccc3)CC2)cc1 (configuration not stated) [TERFENADINE] |  |  |  | inhibition (INH) (Cytochrome P450 2J2): Active |
| CNC(=O)C(=O)NCCCC/C=C\CCCCCCCCCS(=O)(=O)[O-].[Na+] | 5.2% | -20.7 bpm | 0% |  |
| CCOc1ccc2ccc(=O)oc2c1 [ETHOXYCOUMARIN] |  |  |  | half-life at 1 µM [8]: 20.5 min; hepatocyte CLint at 1 µM [9]: 43.2 µL/min/1e6 cells |
| CNC(=O)C(=O)NCCCC/C=C\CCCCCCCCCP(=O)(OC)OCOC(=O)C(C)(C)C (configuration not stated) | 5.4% | -16.2 bpm | 18.6% |  |
| CC[C@@H]1O[C@@H]1C/C=C\C/C=C\C/C=C\C/C=C\CCCC(=O)O |  |  |  | Emax [10]: 28.9 bpm; EC50 [11]: 12 nM |
| CNC(=O)C(=O)NCCCC/C=C\CCCCCCCCCC1=NO[S+]([O-])N1 (configuration not stated) | -0.2% | -24.3 bpm | 10% |  |
| CNC(=O)C(=O)NCCCC/C=C\CCCCCCCCCSc1ccccc1O | 0.4% | -7.5 bpm | 1.5% |  |
| CNC(=O)C(=O)NCCCC/C=C\CCCCCCCCCP(=O)([O-])[O-].[Na+].[Na+] | 6.8% | -21.3 bpm | 37.7% |  |
| CNC(=O)C(=O)NCCCC/C=C\CCCCCCCOCC(=O)OCCOCCOCCO | 1.3% | -25.2 bpm | 1.9% | solubility [5]: Soluble; Activity (Rattus norvegicus [12]): Active; Activity (Rattus norvegicus [13]): Active |
| CCCCCCCC/C=C\CCCCCCCC(=O)O [OLEIC ACID] |  |  |  | Drug metabolism [14]: Metabolite_Notdetected; Drug metabolism [15]: Metabolite_Detected; Drug metabolism (Cytochrome P450 [16]): Metabolite_Detected; Drug metabolism (Cytochrome P450 [17]): Metabolite_Notdetected |
| CCNC(=O)NCCCC/C=C\CCCCCCCCCC(=O)NCC(=O)[O-].[Na+] | 0.9% | -21.1 bpm | 19.2% | solubility [5]: Soluble |
| CCCCc1oc2ccc(NS(C)(=O)=O)cc2c1C(=O)c1ccc(OCCCN(CCCC)CCCC)cc1 [DRONEDARONE] |  |  |  | inhibition (INH) (Cytochrome P450 2J2): Active |
